The numbers were not newly measured in US12042566B2, “Formulations of homotaurines and salts thereof” (Confluence Pharmaceuticals, LLC, priority 2017, dated 2024), which cites them from elsewhere.

For data set [1] the following is noted: humans, reportedly.
The conditions of data set [2]: high solubility and low passive permeability.

Structures are written as SMILES.

Take `CC(=O)NCCCS(=O)(=O)O` [acamprosate, 3-(Acetylamino)propylsulfonic acid]: the oral bioavailability result in data set [1] is “about 11%”. The “Biopharmaceutics Classification System (BCS) class” value in data set [2] is “Class III”.
